In patent publication US20050009094A1 (priority 2001, published 2005):

What was measured:
PrP^Sc exposed neurons = details: cited from earlier work
14-3-3 gene expression = experiment: Expression of 14-3-3 gene in G. cydonium after exposition to PCB118 (Northern and Western Blotting); assay type: in vivo, Geodia cydonium; details: 2 μg PCB 118/g wet weight, incubation 0.5 to 6 days
Text: The analyses were accomplished by means of Northern Blotting [14-3-3 probe] (A) or Western Blotting [14-3-3 antibody] (B).
The employed method was PCR cloning.
The detection of expression of the 14-3-3 proteins on the protein level is accomplished by using antibodies. To this aim, one can either employ commercial antibodies (e.g. from the Calbiochem/Oncogene company) or antibodies raised against the recombinant invertebrate-14-3-3 protein from Geodia cydonium. […] The signals can again be quantified by using the chemiluminescence method. The tissue extracts can e.g. be prepared by homogenisation in a phosphate buffer containing 1 mM of EDTA and 1 mM of phenylmethylsulfonyl fluoride.
The 14-3-3-cDNA from the sea sponge Geodia cydonium was used as a gene probe for the detection of expression of the 14-3-3 proteins on the mRNA-level and the respective antibodies were used for determining the amount of protein. In the accomplished keeping experiments, PCB 118 was used as the model PCB.
1 ml of PCB118 (0.1 mg/ml in corn oil) were injected in 40 g sponge tissue. The samples were incubated in sea water for up to 6 days in 20 l aquariums at 17° C. with continuous aeration; the water was exchanged one time at day 2. Aliquot portions of the tissue (each about 200 mg) were withdrawn at the time zero or after an incubation period of 0.5; 1; 3; 5 and 6 days. […]

| SMILES | effect counteracting the neurotoxic peptide PrP106-126 (PrP^Sc exposed neurons) | effect on PrP^Sc exposed neurons (PrP^Sc exposed neurons) | extent of apoptosis caused by PrP106-126 (PrP^Sc exposed neurons) | expression of the 14-3-3 gene (mRNA and protein) (14-3-3 gene expression) |
| --- | --- | --- | --- | --- |
| CCOC(=O)Nc1ccc(NCc2ccc(F)cc2)nc1N [Flupirtin] | cytoprotective effect | protective effect | reduces | – |
| CC12CC3CC(C)(C1)CC(N)(C3)C2 [Memantin] | – | protective effect | – | – |
| Clc1ccc(-c2cc(Cl)c(Cl)cc2Cl)cc1Cl [PCB118] | – | – | – | very high values |
